Series [1] in a line: ORAC-FL antioxidant capacity. Conditions: relative to Trolox; phosphate buffer 75 mM, pH 7.4, 37 °C. The method, then: To corroborate the generation of the nitro radical, the antioxidant capacity of the series under study was determined by ORAC-FL methodology, employing a fluorescent probe to capture oxygen-centered radicals (Table 2). The ORAC-FL values of the studied compounds are close to the reference value of Trolox, indicating a low antioxidant capacity. For compounds (1-3), the presence of amino substituents decreases antioxidant activity due to their […] characteristics, preventing the presence of labile hydrogens. […] Compounds 4 and 10 present similar ORAC indexes as aromatic rings with high electron density insert the transfer of labile protons. Antioxidant capacity was determined using the ORAC-fluorescence methodology (ORAC-FL). The analysis used a 96-well white polystyrene plate reader (EnSpire multimode PerkinElmer, Waltham, MA, USA). The reaction was carried out in phosphate buffer (75 mM, pH 7.4). […] A blank with FL and AAPH, using dimethyl sulfoxide instead of the antioxidant solution, was used in each assay. […] The inhibitor capacity was expressed as ORAC-FL values and quantified by integrating the area under the curve (AUCNET). All reaction mixtures were prepared in triplicate, and at least three independent assays were performed for each sample. The area under the fluorescence decay curve (AUC) was calculated by integrating the fluorescence decay where F0 is the initial fluorescence read at 0 min, and F is the fluorescence read at the time. The AUCNET corresponding to the sample was calculated by subtracting the AUC corresponding to the blank. Data were processed using Origin […].5 SR2 (San Francisco, CA, USA). The ORAC-FL indices were calculated according to the following Equation (1): (1) ORAC-[…]]

The test system of series [2] is T. cruzi trypomastigotes. The experiment in a line: Generation of ROS (DCFH2-DA fluorescent probe). In kind it is cell-based, Trypanosoma cruzi. Conditions: 100 µM; for ROS generation (DCF fluorescence intensity): 40 min, vs control without compound. The method, then: To generate radical species on T. cruzi trypomastigotes, intracellular free radicals were determined using the fluorescent probe dichlorofluorescein (DCF).
The cultures were incubated with a 20 µM DCFH2-DA solution for 15 min at 28 °C. Then, they were centrifuged at 3500 rpm and washed 2 times with phosphate buffer saline (PBS) pH 7.4. Cells loaded with DCFH2-DA were transferred to a Nunc® fluorescence 96-well plate (Thermo Fisher Scientific Inc., Waltham, MA, USA), where the nitroisoxazoles derivates were added at 100 µM. Fluorescence (exi: 488 nm, emi: 528 nm) was recorded for 40 min in a BioTek (Winooski, VT, USA) Synergy HT spectrofluorometer. The area under increase curves over time was determined using Oring 8 software, with areas normalized to control. Results are the means ± SD of three independent experiments.

The test system of series [3] is epimastigote of T. cruzi Dm28. The experiment in a line: Trypanocidal activity (MTT) on epimastigotes. The series is classed as cell-based. Conditions: Trypanosoma cruzi; for killing at 100 µM: 24 h, n.a = not active, read-out: % T. cruzi Epimastigote (trypanocidal effect); for IC50: T. cruzi Dm28, 24 h, read-out: IC50 T. cruzi E (epimastigote). The method, then: As a preliminary step, a study of nitroisoxazole derivatives on the epimastigote form of T. cruzi was performed. Despite the epimastigote form not being a clinical form present in mammals, its easy handling has allowed screening for the trypanocidal activity of various compounds. It is worth noting that, during the intracellular life cycle of the parasite, a form similar to the epimastigote, which is biochemically and morphologically identical to the form present in the vector, has been described. […] RPMI 1640 medium) for 24 h. […] The effects of the compounds on trypomastigote and Vero cell viability were evaluated by tetrazolium salt reduction assay (MTT). […] The plates were kept overnight at 37 °C (28 °C for epimastigotes), and the optical density (OD) was determined using a 96-well microplate reader (Vantaa, Finland) at 570 nm. Under these conditions, the OD is directly proportional to each well’s viable number of cells. The experiments were performed in triplicate across three different assays.

Series [4] can be described thus: Cyclic voltammetry (reduction of the nitro group). The series is classed as physicochemical. Details: key to −EpcI / −EpcII / −EpaII / −EpaI: potentials in V vs Ag/AgCl; |ΔEp|: unit not given here. From the text:
The chemistry mechanism of reduction in nitroisoxazole derivatives was investigated using cyclic voltammetry.
The peak near −1.32 V corresponds to a quasi-reversible one-electron transfer, according to the criteria of Nicholson–Shain [26] (Table 1), attributable to the species −NO2/NO2.− . The latter species stable anion radical at room temperature. […] An irreversible peak at −0.93 V to the mono-electronic transfer −HNO2/HNO2.− is observed, coupled with a chemical reaction associated with […] of the formed radical. This was evidenced by the addition of NaOH (1 M), which caused a decrease in the Ic peak (Figure 2c).
As previously described, an irreversible signal assigned to hydroxylamine oxidation to a nitroso derivative is also observed for N-acylhydrazones organometallic compounds with a pendant 5-nitrofuryl group. […] Compound 7, which has the least negative reduction potential, can be attributed to introducing a nitro group in the para position of the nitroisoxazole ring. This effect can also be observed in derivatives containing halogens in the same position.
Electrochemical characterization of the new compounds was performed through cyclic voltammetry (CV) on a 693 VA Metrohm instrument (Tokyo, Japan) equipped with a 694 VA Stand converter and 693 VA processor. Potentials were recorded against the Ag/AgCl reference electrode; a hanging drop of mercury (HDME) was used as a working electrode, and platinum was used as an auxiliary electrode. Tetrabutylammonium perchlorate (TBAP, 0.1 M) in DMSO was used as a supporting electrolyte under an N2 atmosphere at room temperature. Using Nicholson´s procedure, the Ipa/Ipc values (RNO2/RNO2^−) were measured from each cyclic voltammogram with a scan rate between 0.1 and 2.5 V/s.

Series [5] deals with trypomastigote of T. cruzi Dm28. In words: Trypanocidal activity (MTT) on trypomastigotes. The series is classed as cell-based. Conditions: Trypanosoma cruzi; for killing at 100 µM: 24 h, n.a = not active, read-out: % T. cruzi Trypomastigote (trypanocidal effect); for IC50: T. cruzi Dm28, 24 h. The method, then: As a preliminary step, a study of nitroisoxazole derivatives on the epimastigote form of T. cruzi was performed. Despite the epimastigote form not being a clinical form present in mammals, its easy handling has allowed screening for the trypanocidal activity of various compounds. It is worth noting that, during the intracellular life cycle of the parasite, a form similar to the epimastigote, which is biochemically and morphologically identical to the form present in the vector, has been described. […] This is consistent with studies by Fonseca-Berzal et al. […] Additionally, compounds with higher activity have aromatic rings as substituents for nitroisoxazoles, confirming what was described Do […] [40]. […] It has also been determined that the presence of an isoxazole is essential for activity, as its aromatic structure contains a weak nitrogen-oxygen bond that, under different reaction conditions, can undergo ring cleavage, increasing activity. The results obtained on epimastigotes cannot be conclusive for determining potential Chagas agents, so conducting studies on the infective, extracellular, non-replicative trypomastigote form of T. cruzi present in humans is essential. […] RPMI 1640 medium) for 24 h. […] The effects of the compounds on trypomastigote and Vero cell viability were evaluated by tetrazolium salt reduction assay (MTT). […] The plates were kept overnight at 37 °C (28 °C for epimastigotes), and the optical density (OD) was determined using a 96-well microplate reader (Vantaa, Finland) at 570 nm. Under these conditions, the OD is directly proportional to each well's viable number of cells. The experiments were performed in triplicate across three different assays.

Series [6] relates to Vero mammalian cells. The experiment in a line: Cytotoxicity (MTT) on Vero cells. In kind it is cell-based. Conditions: Chlorocebus sabaeus, 24 h. The method, then: Additionally, the cytotoxicity of the compounds on VERO mammalian cells was assessed (Table 4). […] It is observed that the majority of the derivatives present considerable cytotoxicity. […] RPMI 1640 medium) for 24 h. […] The effects of the compounds on trypomastigote and Vero cell viability were evaluated by tetrazolium salt reduction assay (MTT). […] The plates were kept overnight at 37 °C (28 °C for epimastigotes), and the optical density (OD) was determined using a 96-well microplate reader (Vantaa, Finland) at 570 nm. Under these conditions, the OD is directly proportional to each well’s viable number of cells. The experiments were performed in triplicate across three different assays.

Setting [7] is: cyclic voltammetry at 2.0 V/s, DMSO, 0.1 M TBAP, vs Ag/AgCl.

A value given as a limit tells only on which side of the number the result lay.

For `Cc1noc(/C=C/N2CCCCC2)c1[N+](=O)[O-]` [Compound 3, (E)-3-Methyl-4-nitro-5-(2-(piperidin-1-yl)vinyl)isoxazole], the melting point (usually the temperature of the solid-liquid transition) fell in the range of 151 to 153 °C. Besides, the “ORAC-FL Index” value in series [1] is on record as 0.52 ± 0.05. Also, the “ROS generation (DCF fluorescence intensity)” value in series [2] is recorded as “increase in fluorescence intensity”. In series [3], the killing at 100 µM was 17 ± 5% and the IC50 (usually the concentration at which inhibition is half-maximal) is over 400 µM. Besides, in series [4] (cyclic voltammetry at 2.0 V/s), the Ipa/Ipc is −0.19 and the “|ΔEp|” value amounted to 100. In series [4] (setting [7]), the “−EpaII” value worked out at 1.19 and the “−EpcII” value is given as 1.29. In series [5], the killing at 100 µM worked out at 20 ± 2% and the IC50 is over 400 µM. In series [6], this compound yielded an IC50 of over 400 µM.

`Cc1noc(/C=C/c2ccc(F)cc2)c1[N+](=O)[O-]` [Compound 5, (E)-5-(4-Fluorostyryl)-3-methyl-4-nitroisoxazole]: the melting point lay in the range of 169 to 171 °C. Further, the “ORAC-FL Index” value in series [1] is listed as 0.74 ± 0.05. Moreover, the “ROS generation (DCF fluorescence intensity)” value in series [2] is “increase in fluorescence intensity”. Also, the “ROS generation compared with Nfx” value in series [2] (Figure 3) is listed as “more reactive oxygen species (ROS) than Nfx”. For the same compound, in series [3], the killing at 100 µM was found to be 47 ± 1% and the IC50 worked out at 400 ± 3 µM. Also, in series [4] (cyclic voltammetry at 2.0 V/s), the Ipa/Ipc is −0.02 and the “|ΔEp|” value is on record as 110. In series [4] (setting [7]), the “−EpaII” value is 0.71 and the “−EpcII” value was 0.82. Besides, in series [5], the killing at 100 µM is 19 ± 3% and the IC50 is over 400 µM. For the same compound, the IC50 in series [6] is over 400 µM.

As to `Cc1noc(/C=C/c2ccc(O)c(O)c2)c1[N+](=O)[O-]` [Compound 8, (E)-4-(2-(3-Methyl-4-nitroisoxazol-5-yl)vinyl)benzene-1,2-diol], the melting point was 270 °C (dec.). Further, in series [1], the “ORAC-FL Index” value amounted to 1.0 ± 0.1. In addition, the “ROS generation (DCF fluorescence intensity)” value in series [2] is recorded as “did not show ROS generation”. Besides, in series [3], the killing at 100 µM is 32 ± 5% and the IC50 was over 400 µM. Further, in series [4] (cyclic voltammetry at 2.0 V/s), the Ipa/Ipc is −0.34 and the “|ΔEp|” value is 150. Besides, in series [4] (setting [7]), the “−EpaII” value is 1.02, the “−EpcI” value turned out to be 0.93 and the “−EpcII” value is 1.17. The “irreversible peak potential, mono-electronic transfer −HNO2/HNO2.−” value in series [4] (cyclic voltammogram, Figure 2b) is −0.93 V. Also, in series [5], the killing at 100 µM stood at 16 ± 2% and the concentration for half-maximal inhibition (IC50) is over 400 µM. The compound also had an IC50 in series [6] of 398.1 ± 0.3 µM.

With `COc1cc(/C=C/c2onc(C)c2[N+](=O)[O-])ccc1O` [Compound 9, (E)-2-Methoxy-4-(2-(3-methyl-4-nitroisoxazol-5-yl)vinyl)phenol], the melting point was 189 to 191 °C. The “ORAC-FL Index” value in series [1] was 0.7 ± 0.2. Moreover, the “ROS generation (DCF fluorescence intensity)” value in series [2] is “did not show ROS generation”. Further, in series [3], the killing at 100 µM turned out to be 52 ± 4% and the IC50 is 166 ± 4 µM. In addition, in series [4] (cyclic voltammetry at 2.0 V/s), the Ipa/Ipc is listed as −0.17 and the “|ΔEp|” value was 160. Also, in series [4] (setting [7]), the “−EpaI” value was determined as 0.82, the “−EpaII” value was determined as 1.07, the “−EpcI” value worked out at 0.66 and the “−EpcII” value was determined as 0.91. For the same compound, the “IIIc couple potential (formation of a hydroxylamine derivative)” value in series [4] (cyclic voltammogram, Figure 2d) was −1.14 V. Moreover, in series [5], the killing at 100 µM came to 15 ± 3% and it took 400 ± 2 µM to reach half-maximal inhibition (IC50). In series [6], it took 244.5 ± 0.5 µM to reach half-maximal inhibition (IC50).

The compound `CCN(CC)c1ccc2cc(/C=C/c3onc(C)c3[N+](=O)[O-])c(=O)oc2c1` [Compound 11, (E)-7-(Diethylamino)-3-(2-(3-methyl-4-nitroisoxazol-5-yl)vinyl)-2H-chromen-2-one] yielded a melting point of 224 to 226 °C. Further, the “ORAC-FL Index” value in series [1] is recorded as 0.21 ± 0.01. Besides, the “ROS generation (DCF fluorescence intensity)” value in series [2] was “increase in fluorescence intensity”. For the same compound, the IC50 in series [3] is over 400 µM. In series [4] (setting [7]), the “−EpcI” value is on record as 0.79 and the “−EpcII” value came out at 1.21. Also, in series [5], the killing at 100 µM amounted to 10 ± 4% and half-maximal inhibition (IC50) required 400 ± 5 µM. In series [6], the midpoint of inhibition, the IC50, lay at 125.9 ± 0.1 µM.

For the compound `Cc1noc(/C=C/c2cn(-c3ccccc3)c3ccccc23)c1[N+](=O)[O-]` [Compound 12, (E)-3-Methyl-4-nitro-5-(2-(1-phenyl-1H-indol-3-yl)vinyl)isoxazole], the melting point was in the range of 196 to 199 °C. For the same compound, the “ORAC-FL Index” value in series [1] worked out at 0.4 ± 0.1. For the same compound, the “ROS generation (DCF fluorescence intensity)” value in series [2] is listed as “did not show ROS generation”. Moreover, in series [3], the killing at 100 µM turned out to be 5 ± 2% and the IC50 was over 400 µM. For the same compound, in series [4] (cyclic voltammetry at 2.0 V/s), the Ipa/Ipc is on record as −0.36 and the “|ΔEp|” value amounted to 90. In series [4] (setting [7]), the “−EpaII” value amounted to 0.87 and the “−EpcII” value stood at 0.96. In series [5], the killing at 100 µM worked out at 16 ± 2% and the IC50 is over 400 µM. The compound also gave an IC50 in series [6] of 141 ± 6 µM.
